Assay results: patent US20260297080A1, “BICYCLIC COMPOUNDS AS CDK INHIBITORS” (BeOne Medicines I GmbH, priority 2022, published 2026)

How the values were obtained:
[1] = biological target: CDK2/Cyclin E1 (Homo sapiens, UniProt P24941); assay: CDK2/Cyclin E1 Biochemical Assay (TR-FRET), 0.060 mM ATP; conditions: 0.15 μM Rb (Ser780)-biotin substrate, pH7.0, 60 min preincubation, 120 min reaction, room temperature
Experimental: (§1) CDK2/Cyclin E1 and CDK1/Cyclin B1 Biochemical Assays
(§2) Compounds disclosed herein were tested for inhibition of CDK2/Cyclin E1 or CDK1/Cyclin B1 kinase in an assay based on the time-resolved fluorescence-resonance energy transfer (TR-FRET) methodology. The assay was carried out in 384-well low volume black plates in a reaction mixture containing CDK2/Cyclin E1 or CDK1/Cyclin B1, 0.060 mM ATP for CDK2/Cyclin E1 or 0.015 mM ATP for CDK1/Cyclin B1, 0.15 μM Rb (Ser780)-biotin substrate and 0-10 μM compound in buffer containing 50 mM HEPES pH7.0, 0.02% NaN3, 0.01% BSA, 0.1 mM Orthovanadate, 50 mM MgCl2, 1 mM DTT and 0.005% Tween-20. The kinase was incubated with compound for 60 minutes at room temperature and the reaction was initiated by the addition of ATP and Rb (Ser780)-biotin substrate. After reaction at room temperature for 120 minutes, an equal volume of stop/detection solution was added according to the manufacture's instruction (Cisbio Bioassays). The stop/detection solution contained Streptavidin-XL665 and Anti-pRb (Ser780) mAb-Eu Cryptate in Detection buffer (Cisbio Bioassays). Plates were incubated at room temperature for 60 minutes, and the TR-FRET signals (ex337 nm, em665 nm/620 nm) were recorded on a PHERAstar FSX plate reader (BMG Labtech). The inhibition percentage of CDK2/Cyclin E1 or CDK1/Cyclin B1 kinase activity in presence of increasing concentrations of compounds was calculated based on the ratio of fluorescence at 665 nm to that at 620 nm. The IC50 for each compound was derived from fitting the data to the four-parameter logistic equation by Dotmatics.

[2] = biological target: CDK1/Cyclin B1 (Homo sapiens, UniProt P06493); assay: CDK1/Cyclin B1 Biochemical Assay (TR-FRET), 0.015 mM ATP; conditions: 0.15 μM Rb (Ser780)-biotin substrate, pH7.0, 60 min preincubation, 120 min reaction, room temperature
Experimental: as §1, §2

Chain of CDK1/Cyclin B1 (P06493 whole entry): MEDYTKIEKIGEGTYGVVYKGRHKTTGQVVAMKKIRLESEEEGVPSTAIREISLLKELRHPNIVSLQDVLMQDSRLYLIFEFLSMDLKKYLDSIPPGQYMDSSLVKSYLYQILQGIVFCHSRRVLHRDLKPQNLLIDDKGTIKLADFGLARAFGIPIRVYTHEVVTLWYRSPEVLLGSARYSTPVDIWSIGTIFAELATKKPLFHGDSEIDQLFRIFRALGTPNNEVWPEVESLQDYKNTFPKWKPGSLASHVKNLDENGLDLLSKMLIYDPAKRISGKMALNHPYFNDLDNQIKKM
Chain of CDK1/Cyclin B1 (P14635 whole entry partner): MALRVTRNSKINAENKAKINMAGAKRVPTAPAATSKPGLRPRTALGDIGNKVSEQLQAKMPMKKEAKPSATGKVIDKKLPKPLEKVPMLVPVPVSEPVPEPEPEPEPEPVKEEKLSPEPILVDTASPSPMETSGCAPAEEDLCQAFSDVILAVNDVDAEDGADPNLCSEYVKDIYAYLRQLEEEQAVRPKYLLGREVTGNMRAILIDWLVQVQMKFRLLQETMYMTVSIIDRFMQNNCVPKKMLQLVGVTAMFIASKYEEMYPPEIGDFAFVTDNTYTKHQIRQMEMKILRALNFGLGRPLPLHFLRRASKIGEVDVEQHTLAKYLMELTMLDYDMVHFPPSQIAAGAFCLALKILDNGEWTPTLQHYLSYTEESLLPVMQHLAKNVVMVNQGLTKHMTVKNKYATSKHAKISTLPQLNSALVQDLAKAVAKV

SMILES | IC50 [1] [nM] | IC50 [2] [nM]
Cc1nc2c(cc1Nc1cc([C@@H]3CC[C@H](OC(=O)NC(C)C)C3)[nH]n1)CNS2(=O)=O (relative stereo) [Example 396, cis-3-(3-((6-methyl-1,1-dioxido-2,3-dihydroisothiazolo[5,4-b]pyridin-5-yl)amino)-1H-pyrazol-5-yl)cyclopentyl isopropylcarbamate] | 9.7 | 760
CC(C)NC(=O)O[C@H]1CC[C@@H](c2cc(Nc3cc4c(cc3F)S(=O)(=O)N(C)C4)n[nH]2)C1 (relative stereo) [Example 45, cis-3-(3-((6-fluoro-2-methyl-1,1-dioxido-2,3-dihydrobenzo[d]isothiazol-5-yl)amino)-1H-pyrazol-5-yl)cyclopentyl isopropylcarbamate] | 181 | 6010
CC(C)NC(=O)O[C@H]1CC[C@@H](c2cc(Nc3ccc4c(c3)NS(=O)(=O)C4(C)C)n[nH]2)C1 (relative stereo) [Example 304, cis-3-(3-((3,3-dimethyl-2,2-dioxido-1,3-dihydrobenzo[c]isothiazol-6-yl)amino)-1H-pyrazol-5-yl)cyclopentyl isopropylcarbamate] | 29 | 251
COCC(C)NC(=O)O[C@H]1CC[C@@H](c2cc(Nc3ccc4c(c3F)CNS4(=O)=O)n[nH]2)C1 (relative stereo) [Example 161, cis-3-(3-((4-fluoro-1,1-dioxido-2,3-dihydrobenzo[d]isothiazol-5-yl)amino)-1H-pyrazol-5-yl)cyclopentyl(1-methoxypropan-2-yl)carbamate] | 6.5 | 332
COCCN1Cc2c(ccc(Nc3cc([C@@H]4CC[C@H](OC(=O)NC(C)C)C4)[nH]n3)c2F)S1(=O)=O (relative stereo) [Example 64, cis-3-(3-((4-fluoro-2-(2-methoxyethyl)-1,1-dioxido-2,3-dihydrobenzo[d]isothiazol-5-yl)amino)-1H-pyrazol-5-yl)cyclopentyl isopropylcarbamate] | 4.6 | 214
CCCNC(=O)O[C@H]1CC[C@@H](c2cc(Nc3ccc4c(c3F)CS(=O)(=O)N4C)n[nH]2)C1 (single isomer, unassigned) [Example 256a, cis-3-(3-((4-fluoro-1-methyl-2,2-dioxido-1,3-dihydrobenzo[c]isothiazol-5-yl)amino)-1H-pyrazol-5-yl)cyclopentyl propylcarbamate] | 5.3 | 334
CN1c2ccc(Nc3cc([C@@H]4CC[C@H](OC(=O)NC(C)(C)CO)C4)[nH]n3)c(F)c2CS1(=O)=O (single isomer, unassigned) [Example 327b, cis-3-(3-((4-fluoro-1-methyl-2,2-dioxido-1,3-dihydrobenzo[c]isothiazol-5-yl)amino)-1H-pyrazol-5-yl)cyclopentyl(1-hydroxy-2-methylpropan-2-yl)carbamate] | 1.7 | 56
[2H]C([2H])([2H])C1c2cc(Nc3cc([C@@H]4CC[C@H](OC(=O)NC5(C)CC5)C4)[nH]n3)cc(F)c2N(C([2H])([2H])[2H])S1(=O)=O (relative stereo) [Example 287, cis-3-(3-((7-fluoro-1,3-bis(methyl-d3)-2,2-dioxido-1,3-dihydrobenzo[c]isothiazol-5-yl)amino)-1H-pyrazol-5-yl)cyclopentyl(1-methylcyclopropyl)carbamate] | 7.7 | 77
CC(=O)N1CC(CN2c3ccc(Nc4cc([C@@H]5CC[C@H](OC(=O)NC(C)C)C5)[nH]n4)cc3CS2(=O)=O)C1 (relative stereo) [Example 214, cis-3-(3-((1-((1-acetylazetidin-3-yl)methyl)-2,2-dioxido-1,3-dihydrobenzo[c]isothiazol-5-yl)amino)-1H-pyrazol-5-yl)cyclopentyl isopropylcarbamate] | 1.7 | 44
CC1NS(=O)(=O)c2ccc(Nc3cc([C@@H]4CC[C@H](OC(=O)NC5(C)CC5)C4)[nH]n3)c(F)c21 (single isomer, unassigned) [Example 52c, cis-3-(3-((4-fluoro-3-methyl-1,1-dioxido-2,3-dihydrobenzo[d]isothiazol-5-yl)amino)-1H-pyrazol-5-yl)cyclopentyl(1-methylcyclopropyl)carbamate] | 1.9 | 154
CC(C)NC(=O)O[C@H]1CC[C@@H](c2cc(Nc3ccc4c(c3F)CN(CC3CCN(C)C3=O)S4(=O)=O)n[nH]2)C1 (relative stereo) [Example 111, cis-3-(3-((4-fluoro-2-((1-methyl-2-oxopyrrolidin-3-yl)methyl)-1,1-dioxido-2,3-dihydrobenzo[d]isothiazol-5-yl)amino)-1H-pyrazol-5-yl)cyclopentyl isopropylcarbamate] | 2.1 | 225
CC(C)NC(=O)O[C@H]1CC[C@@H](c2cc(Nc3cc4c(cc3F)N(C3COC3)S(=O)(=O)C4)n[nH]2)C1 (relative stereo) [Example 301, cis-3-(3-((6-fluoro-1-(oxetan-3-yl)-2,2-dioxido-1,3-dihydrobenzo[c]isothiazol-5-yl)amino)-1H-pyrazol-5-yl)cyclopentyl isopropylcarbamate] | 12 | 404
CC(C)NC(=O)O[C@H]1CC[C@@H](c2cc(Nc3ccc4c(c3F)CN(C(C)C3CCOC3)S4(=O)=O)n[nH]2)C1 (relative stereo) [Example 115, cis-3-(3-((4-fluoro-1,1-dioxido-2-(1-(tetrahydrofuran-3-yl)ethyl)-2,3-dihydrobenzo[d]isothiazol-5-yl)amino)-1H-pyrazol-5-yl)cyclopentyl isopropylcarbamate] | 6 | 407
CC(C)NC(=O)O[C@H]1CC[C@@H](c2cc(Nc3ccc4c(c3F)S(=O)(=O)NC4)n[nH]2)C1 (single isomer, unassigned) [Example 186b, cis-3-(3-((7-fluoro-1,1-dioxido-2,3-dihydrobenzo[d]isothiazol-6-yl)amino)-1H-pyrazol-5-yl)cyclopentyl isopropylcarbamate] | 1.7 | 44
CN1c2ccc(Nc3cc([C@@H]4CC[C@H](OC(=O)NC5(C)COC5)C4)[nH]n3)cc2CS1(=O)=O (relative stereo) [Example 234, cis-3-(3-((1-methyl-2,2-dioxido-1,3-dihydrobenzo[c]isothiazol-5-yl)amino)-1H-pyrazol-5-yl)cyclopentyl(3-methyloxetan-3-yl)carbamate] | 4.2 | 67
CC(C)NC(=O)O[C@@H]1CC[C@H](c2cc(Nc3ccc4c(c3)N(C(=O)OC(C)(C)C)CS4(=O)=O)n[nH]2)C1 (relative stereo) [Example 319, cis-tert-butyl 5-((5-(3-((isopropylcarbamoyl)oxy)cyclopentyl)-1H-pyrazol-3-yl)amino)benzo[d]thiazole-3 (2H)-carboxylate 1,1-dioxide] | 85 | 1750
CC(C)NC(=O)O[C@H]1CC[C@@H](c2cc(Nc3ccc4c(c3F)CN(CCO)S4(=O)=O)n[nH]2)C1 (single isomer, unassigned) [Example 125a, cis-3-(3-((4-fluoro-2-(2-hydroxyethyl)-1,1-dioxido-2,3-dihydrobenzo[d]isothiazol-5-yl)amino)-1H-pyrazol-5-yl)cyclopentyl isopropylcarbamate] | 12 | 1220
CC1(NC(=O)O[C@H]2CC[C@@H](c3cc(Nc4ccc5c(c4F)CN(CCO)S5(=O)=O)n[nH]3)C2)CC1 (racemic) [Example 128, cis-3-(3-((4-fluoro-2-(2-hydroxyethyl)-1,1-dioxido-2,3-dihydrobenzo[d]isothiazol-5-yl)amino)-1H-pyrazol-5-yl)cyclopentyl(1-methylcyclopropyl)carbamate] | 1.8 | 98
CC(C)NC(=O)O[C@H]1CC[C@@H](c2cc(Nc3ccc4c(c3)S(=O)(=O)NC4)n[nH]2)C1 (relative stereo) [Example 3, cis-3-(3-((1,1-dioxido-2,3-dihydrobenzo[d]isothiazol-6-yl)amino)-1H-pyrazol-5-yl)cyclopentyl isopropylcarbamate] | 1.2 | 29
CC(C)NC(=O)O[C@H]1CC[C@@H](c2cc(Nc3ccc4c(c3F)CS(=O)(=O)N4)n[nH]2)C1 (single isomer, unassigned) [Example 251b] | 1 | 31
CC(C)NC(=O)O[C@H]1CC[C@@H](c2cc(Nc3ccc4c(c3F)NS(=O)(=O)C4)n[nH]2)C1 (relative stereo) [Example 312, cis-3-(3-((7-fluoro-2,2-dioxido-1,3-dihydrobenzo[c]isothiazol-6-yl)amino)-1H-pyrazol-5-yl)cyclopentyl isopropylcarbamate] | 4.3 | 147
CC(C)NC(=O)O[C@H]1CC[C@@H](c2cc(Nc3ccc4c(c3F)CS(=O)(=O)C4)n[nH]2)C1 (relative stereo) [Example 317, cis-3-(3-((4-fluoro-2,2-dioxido-1,3-dihydrobenzo[c]thiophen-5-yl)amino)-1H-pyrazol-5-yl)cyclopentyl isopropylcarbamate] | – | 18
